Results taken from patent US6060241A (priority 1997, dated 2000).

Assays:
[1] = target: T1, Hp 3-oxoacid CoA-transferase (Helicobacter pylori, UniProt P56006+P56007); assay: 3-oxoacid CoA transferase activity endogenous in H. pylori lysates, in the presence of inhibitors; assay type: biochemical; settings: substances (50 nM); endogenous enzyme in H. pylori lysate; none = 25 ± 1
T1 construct: second column endogenous enzyme in H. pylori lysate
Procedure: (§1) Activity was measured by monitoring the increase in A310 corresponding to the formation of acetoacetyl-CoA, as previously described (Howard et al., 1986). The assay contained 67 mM acetoacetate (Aldrich), 300 μM succinyl-CoA and 15 mM MgCl2 in 50 mM Tris-HCl pH 9.1. Under the experiment conditions, ε=7,800 M^-1 cm^-1.
(§2) The activity assay was performed as described in Example 8, using H. pylori cell lysates.
(§3) The activity assay was performed as described in Example 8 in the presence of the indicated inhibitors. The results are presented below in Table 6

[2] = target: T1, Hp 3-oxoacid CoA-transferase; assay: 3-oxoacid CoA transferase activity reconstituted in E. coli, in the presence of inhibitors; assay type: biochemical; settings: for Specific activity (mU/mg ± SD), 3-oxoacid CoA transferase, E. coli transformed with pCOA-t: substances (50 nM), lysate of E. coli transformed with pCoA-t, none = 2255 ± 7; for inhibition of Hp CoA-transferase (in words): statement that refers to Example 11
Procedure: For 3-oxoadipate-CoA and 3-oxoacid CoA-transferase assays (FIGS. 7A, 7B, and 7C), E. coli cells transformed with pCoAT, which contains A^73 TGAA-TATAG^1394 of SEQ ID NO.:1 or with pUrea a plasmid containing the gene for urease (Labigne et al., J. Bacteriol. 173:1920-1931 (1991)) as a negative control, were washed once with M9 salts minimal medium (Molecular Cloning, a laboratory manual, Sambrook, Fritsch and Maniatis, second edition), pellets were stored at -20° C. until just prior to disruption. Thawed cell pellets were resuspended in 1 ml 50 mM phosphate buffer (pH 6.8), 1 mM dithiothreitol (Merck). Cell suspensions were disrupted by sonication and cellular debris removed by centrifugation. For butyrate-acetoacetate-CoA-transferase assays, the buffer used for cell wash and pellets resuspension was: 50 mM MOPS (pH 7.0), 0.5 M (NH4)2SO4, 20% (v/v) glycerol, 1 mM EDTA. Protein concentration in cellular extracts was determined by Bradford's method (1976) using γ globulin as standard (Bio-Rad) and activity expressed in U/mg of protein.
as §1, §3

acetoacetyl CoA thiolase = target: T2, acetoacetyl CoA thiolase (Helicobacter pylori, UniProt O25399); assay: biochemical; assay type: biochemical
T2 construct: mouse-adapted P49 used for mutants
T2 sequence (O25399 entry or part of it): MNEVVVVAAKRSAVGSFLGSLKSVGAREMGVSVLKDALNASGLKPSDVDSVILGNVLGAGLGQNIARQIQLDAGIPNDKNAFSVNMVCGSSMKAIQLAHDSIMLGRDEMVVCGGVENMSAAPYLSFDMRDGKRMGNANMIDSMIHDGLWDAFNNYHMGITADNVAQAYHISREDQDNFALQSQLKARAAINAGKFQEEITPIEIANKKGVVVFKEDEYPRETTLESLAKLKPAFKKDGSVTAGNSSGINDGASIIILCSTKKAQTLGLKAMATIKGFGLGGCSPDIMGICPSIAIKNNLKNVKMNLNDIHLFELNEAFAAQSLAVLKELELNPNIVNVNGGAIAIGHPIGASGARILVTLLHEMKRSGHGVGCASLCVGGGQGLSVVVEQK
Procedure: as §1, §2
The only CoA-transferase activity detected in H. pylori lysates was the one leading to the formation of acetoacetyl CoA from succinyl CoA and acetoacetate in the presence of Mg^2+.

[3] = target: 3 oxo acid CoA-transferase (Helicobacter pylori, UniProt P56006+P56007); assay: Reverse reaction of CoA-transferase, disappearance of acetoacetyl CoA at 310 nm; assay type: biochemical; settings: Hp 69A + 2 mM iodoacetamide; Hp 69A alone = 227 ± 4
Sequence of 3 oxo acid CoA-transferase (P56007 whole entry): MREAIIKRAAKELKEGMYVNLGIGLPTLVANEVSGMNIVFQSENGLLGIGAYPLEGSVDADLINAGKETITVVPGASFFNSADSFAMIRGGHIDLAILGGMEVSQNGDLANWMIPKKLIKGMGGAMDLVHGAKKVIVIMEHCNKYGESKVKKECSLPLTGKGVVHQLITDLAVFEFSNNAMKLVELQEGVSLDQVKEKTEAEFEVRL
Sequence of 3 oxo acid CoA-transferase (P56006 whole entry): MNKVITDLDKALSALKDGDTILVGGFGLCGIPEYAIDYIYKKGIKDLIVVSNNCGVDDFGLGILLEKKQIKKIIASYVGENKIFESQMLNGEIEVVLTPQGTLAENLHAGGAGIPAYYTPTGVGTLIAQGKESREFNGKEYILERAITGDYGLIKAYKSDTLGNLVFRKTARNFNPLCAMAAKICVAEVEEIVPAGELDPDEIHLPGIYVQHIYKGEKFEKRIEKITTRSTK
Source text: As described above, CoA-transferase also catalyzes the reverse reaction, acetoacetyl CoA+succinate→acetoacetate+succinyl CoA. This additional 3-oxoacid CoA-transferase activity is examined in transformed E. coli and H. pylori by measuring the disappearance of acetoacetyl CoA at 310 nm.

[4] = target: mammalian CoA-transferase (Homo sapiens, UniProt P55809); assay: Effect on the mammalian CoA-transferase; settings: statement that refers to Example 11; no mammalian data printed
Sequence of mammalian CoA-transferase (P55809 40-520): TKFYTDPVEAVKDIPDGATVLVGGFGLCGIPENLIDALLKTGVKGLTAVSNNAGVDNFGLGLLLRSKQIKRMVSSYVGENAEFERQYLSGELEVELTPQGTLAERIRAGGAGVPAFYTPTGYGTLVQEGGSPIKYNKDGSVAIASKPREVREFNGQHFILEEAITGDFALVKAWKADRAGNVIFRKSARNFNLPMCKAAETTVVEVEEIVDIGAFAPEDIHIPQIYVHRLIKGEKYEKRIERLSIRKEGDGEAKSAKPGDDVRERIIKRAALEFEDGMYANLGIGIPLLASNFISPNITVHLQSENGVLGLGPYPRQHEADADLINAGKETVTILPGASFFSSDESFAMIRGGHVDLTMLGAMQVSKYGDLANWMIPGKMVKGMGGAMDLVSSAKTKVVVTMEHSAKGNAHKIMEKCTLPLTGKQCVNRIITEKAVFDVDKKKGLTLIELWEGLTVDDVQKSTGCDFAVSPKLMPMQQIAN

T1 sequence (P56006 whole entry): as the sequence (P56006 whole entry) above
T1 sequence (P56007 whole entry): as the sequence (P56007 whole entry) above

| SMILES | Specific activity (mU/mg ± SD), 3-oxoacid CoA transferase, H pytori [1] | Specific activity (mU/mg ± SD), 3-oxoacid CoA transferase, E. coli transformed with pCOA-t [2] | CoA transferase specific activity (acetoacetyl CoA thiolase; 2 mM iodoacetamide, H. pylori lysate, 25±2 mU/mg without iodoacetamide) | fold induction at 2000 µM (acetoacetyl CoA thiolase; read-out: increase of CoA transferase specific activity) | Specific activity (mU/mg), reverse reaction [3] | inhibition of Hp CoA-transferase (in words) [2] | inhibition of the mammalian homologue (in words) [4] |
| --- | --- | --- | --- | --- | --- | --- | --- |
| O=C(O)CC(=O)O [disodium malonate] | 27 ± 4 mU/mg | 1823 ± 162 mU/mg | – | – | – | – | – |
| O=C(O)CCCC(=O)O [glutaric acid] | 16 ± 5 mU/mg | 31 ± 7 mU/mg | – | – | – | – | – |
| NC(=O)CI [iodoacetamide] | – | – | 60±2 mU/mg | 2.5 | 257 ± 0 mU/mg | – | – |
| O=C(O)CC(S)C(=O)O (stereo not drawn) [mercapto succinic acid] | 2 ± 2 mU/mg | 16 ± 13 mU/mg | – | – | – | inhibit Hp CoA-transferase | not the mammalian homologue |
| CC(CC(=O)O)C(=O)O (stereo not drawn) [methyl succinic acid] | 0 ± 1 mU/mg | 67 ± 51 mU/mg | – | – | – | inhibit Hp CoA-transferase | not the mammalian homologue |
| COC(=O)CCC(=O)O [methyl succinic ester] | 14 ± 3 mU/mg | 58 ± 49 mU/mg | – | – | – | – | – |
| N[C@@H](CC(=O)O)C(=O)[O-].[Na+] [monosodium aspartate] | 24 ± 1 mU/mg | 1859 ± 151 mU/mg | – | – | – | – | – |
| O=C(O)CC(O)C(=O)O (stereo not drawn) [monosodium malate] | 22 ± 8 mU/mg | 131 ± 0 mU/mg | – | – | – | – | – |
